Results: paper PMC11930985 (Nature Communications, 2025)
Read-outs that look alike come from different tables or passages of the source.

Assays:
AML/MDS patients = test system: AML/MDS patients
Method: Safety assessments including standard clinical laboratory safety tests (hematology, biochemistry, coagulation, and urinalysis), physical examinations, vital signs (blood pressure, heart rate, respiration rate and temperature), and ECOG performance status were performed at baseline and throughout the study. Electrocardiograms were obtained at screening, Cycle 1 Day 1–4, 8, and 15, Cycle 2 Day 1, 8 and 15, at Day 1 of each cycle thereafter, (up to and including Cycle 15), and at Final Study Visit. QT prolongation was assessed using the Fridericia correction […] [34]. Severity of QTcF prolongation was defined as follows: Grade 1: maximum prolongation 450–480 ms; Grade 2: maximum prolongation 481-500 ms; Grade 3: ≥501 ms on at least two separate ECGs; Grade 4: ≥501 ms or >60 ms change from baseline, with Torsades de pointes, polymorphic ventricular tachycardia or signs/symptoms of serious arrythmia; Grade 5: Death.
Adverse events (AEs) were monitored starting at study enrolment until 28 days after end of treatment and graded according to the National Cancer Institute Common Terminology Criteria for Adverse Events (NCI-CTCAE) version 4.0. If drug-related toxicities continued beyond the follow-up period, patients were followed until all drug-related toxicities resolved to grade ≤1, stabilized or returned to baseline.

CYP3A4 = test system: CYP3A4; design: method as in Investigator's Brochure (IB) version 5.0; conditions: preliminary results; ref Investigator's Brochure (IB) version 5.0; cited from earlier work
AML patients = conditions: cited from earlier work; for Remissions (CR and CRi), patients: patients not eligible for intensive chemotherapy

SMILES: Nc1ccn([C@@H]2O[C@H](CO)[C@@H](O)[C@@H]2O)c(=O)n1 [Cytarabine, reference compound]
- Patients with cytarabine dose-reduced (AML/MDS patients; LDAC cohorts): 4
- Patients with cytarabine interrupted (AML/MDS patients; human, in vivo): 8
- Patients with cytarabine withdrawn (AML/MDS patients; human, in vivo): 1
- Extensive metabolism by CYP3A4 (CYP3A4): does not
- Response rate (AML patients; R/R-AML): < 20%
- Remissions (CR and CRi), patients (AML patients): less than 35%

SMILES: Nc1ncn([C@@H]2O[C@H](CO)[C@@H](O)[C@H]2O)c(=O)n1 [azacitidine]
- Remissions (CR and CRi), patients (AML patients): less than 35%

SMILES: Nc1ncn([C@H]2C[C@H](O)[C@@H](CO)O2)c(=O)n1 [decitabine]
- Remissions (CR and CRi), patients (AML patients): less than 35%

SMILES: CC1(C)CCC(CN2CCN(c3ccc(C(=O)NS(=O)(=O)c4ccc(NCC5CCOCC5)c([N+](=O)[O-])c4)c(Oc4cnc5[nH]ccc5c4)c3)CC2)=C(c2ccc(Cl)cc2)C1 [venetoclax]
- Response rate (AML patients; HMA or LDAC plus venetoclax, venetoclax-naïve R/R-AML): 31%
- Response rates (AML patients; venetoclax added to less-intensive regimens (HMAs or LDAC), frontline): 60–75%
